According to patent publication US20240132431A1, “METHOD FOR ALKYLATING ACIDIC FUNCTIONAL GROUP” (Chugai Seiyaku Kabushiki Kaisha, priority 2021, published 2024):
Values belong to the compound of their own block, whether it stands above or below them.

Molecular target: T1, Bcl-2 protein (Recombinant Human Bcl-2 Protein) (Homo sapiens, UniProt P10415)
T1 construct: purchased Novus NBP2-34889
Test: Binding evaluation of mixture library compounds to Bcl-2 using AS-MS (affinity selection mass spectrometry)
Conditions: for ASMS ratio (%) n = 1 / ASMS ratio (%) n = 2: ASMS Ratio(%)=(A−C)/B×100; for ASMS ratio (%) n = 1: replicate n = 1; for ASMS ratio (%) n = 2: replicate n = 2
In short: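 Readout is ASMS Ratio (%), (A−C)/B×100, from reversed-phase LC/MS of SEC-passed extracts, with protein-free unfiltered standard (B) and protein-free SEC blank (C). Recombinant human Bcl-2 at 20 μM final met ~1200 pooled compounds at […] each for 1 h, 23° C., dark, in Tris-HCl pH 7.4 buffer.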

[1] = AS-MS on the mixture of 1200 library compounds
[2] = AS-MS, mixture of 1200 compounds, Bcl-2

T1 sequence (P10415 whole entry): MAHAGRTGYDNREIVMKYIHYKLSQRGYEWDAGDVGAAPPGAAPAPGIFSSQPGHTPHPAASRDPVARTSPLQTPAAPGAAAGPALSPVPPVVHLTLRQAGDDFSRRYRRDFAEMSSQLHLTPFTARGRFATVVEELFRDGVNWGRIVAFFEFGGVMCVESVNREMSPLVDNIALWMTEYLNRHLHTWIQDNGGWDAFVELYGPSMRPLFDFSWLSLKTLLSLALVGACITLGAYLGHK

Compound: CCOc1cccc(C#Cc2ccccc2C(=O)N2CCN(c3ccc(C(=O)NS(C)(=O)=O)nn3)CC2)c1 [B2I007-01, 6-[4-[2-[2-(3-Ethoxyphenyl)ethynyl]benzoyl]piperazin-1-yl]-N-methylsulfonylpyridazine-3-carboxamide]
ASMS ratio (%) n = 1 (AS-MS, mixture library, Bcl-2): −1.6%
ASMS ratio (%) n = 2 (AS-MS, mixture library, Bcl-2): −1.6%

Compound: CCOc1cccc(-c2ccc(CN3CCN(c4ccc(C(=O)N(C)CC56CC7CC(CC(C7)C5)C6)cc4)CC3)cc2F)c1 [B3A051-01, N-(1-Adamantylmethyl)-4-[4-[[4-(3-ethoxyphenyl)-3-fluorophenyl]methyl]piperazin-1-yl]-N-methylbenzamide]
ASMS ratio (%) n = 1 [1]: 21.3%
ASMS ratio (%) n = 2 [1]: −4.2%

Compound: CCOc1cccc(-c2cc(CN3CCN(c4ccc(C(=O)NS(=O)(=O)CC56CC7CC(CC(C7)C5)C6)cc4)CC3)cc(C(F)(F)F)c2)c1 [B2A061-01, N-(1-Adamantylmethylsulfonyl)-4-[4-[[3-(3-ethoxyphenyl)-5-(trifluoromethyl)phenyl]methyl]piperazin-1-yl]benzamide]
ASMS ratio (%) n = 1 (AS-MS, mixture library, Bcl-2): 1.7%
ASMS ratio (%) n = 2 (AS-MS, mixture library, Bcl-2): −5.6%

Compound: CCOc1cncc(-c2csc(C(=O)N3CCN(c4ccc(C(=O)N(C)CC56CC7CC(CC(C7)C5)C6)nn4)CC3)c2)c1 [B3A002-01, N-(1-Adamantylmethyl)-6-[4-[4-(5-ethoxypyridin-3-yl)thiophene-2-carbonyl]piperazin-1-yl]-N-methylpyridazine-3-carboxamide]
ASMS ratio (%) n = 1 [1]: 1.9%
ASMS ratio (%) n = 2 [1]: −1.2%

Compound: CCOc1cccc(-c2csc(C(=O)N3CCN(c4ccc(C(=O)NS(=O)(=O)C(C)(C)C)cc4)CC3)c2)c1 [B2L023-01, N-tert-Butylsulfonyl-4-[4-[4-(3-ethoxyphenyl)thiophene-2-carbonyl]piperazin-1-yl]benzamide]
ASMS ratio (%) (n = 1): 0.0%
ASMS ratio (%) (n = 2): 0.0%

Compound: 4-[4-[[3-(3-Ethoxyphenyl)-5-(trifluoromethoxy)phenyl]methyl]piperazin-1-yl]-N-propylbenzamide [B1M032-01]
ASMS ratio (%) n = 1 [2]: 0.3%
ASMS ratio (%) n = 2 [2]: 0.3%

Compound: CCOc1cccc(-c2ccccc2CCC(=O)N2CCN(c3ccc(C(=O)NCC45CC6CC(CC(C6)C4)C5)cc3)CC2)c1 [B1A033-01, N-(1-Adamantylmethyl)-4-[4-[3-[2-(3-ethoxyphenyl)phenyl]propanoyl]piperazin-1-yl]benzamide]
ASMS ratio (%) n = 1 [2]: 3.3%
ASMS ratio (%) n = 2 [2]: −13.3%

Compound: CCOc1cccc(-c2cc(OC)c(CN3CCN(c4ccc(C(=O)N(C)CC56CC7CC(CC(C7)C5)C6)nn4)CC3)c(OC)c2)c1 [B3A085-01, N-(1-Adamantylmethyl)-6-[4-[[4-(3-ethoxyphenyl)-2,6-dimethoxyphenyl]methyl]piperazin-1-yl]-N-methylpyridazine-3-carboxamide]
ASMS ratio (%) n = 1 [1]: 5.3%
ASMS ratio (%) n = 2 [1]: −7.1%

Compound: CCOc1cccc(-c2cc(CN3CCN(c4ccc(C(=O)N(CC)CC)cc4)CC3)cc(C(F)(F)F)c2)c1 [B4J061-01, 4-[4-[[3-(3-Ethoxyphenyl)-5-(trifluoromethyl)phenyl]methyl]piperazin-1-yl]-N,N-diethylbenzamide]
ASMS ratio (%) n = 1 (AS-MS, mixture library, Bcl-2): 1.6%
ASMS ratio (%) n = 2 (AS-MS, mixture library, Bcl-2): −1.8%

Compound: CCOc1cncc(-c2ccc(C(=O)N3CCN(c4ccc(C(=O)NS(=O)(=O)C(C)(C)C)nn4)CC3)c3ccccc23)c1 [B2L014-01, N-tert-Butylsulfonyl-6-[4-[4-(5-ethoxypyridin-3-yl)naphthalene-1-carbonyl]piperazin-1-yl]pyridazine-3-carboxamide]
ASMS ratio (%) (n = 1): 0.3%
ASMS ratio (%) (n = 2): 0.5%

Compound: CCOc1cncc(-c2ccc(CN3CCN(c4ccc(C(=O)NS(=O)(=O)CC56CC7CC(CC(C7)C5)C6)cc4)CC3)cc2C)c1 [B2A048-01, N-(1-Adamantylmethylsulfonyl)-4-[4-[[4-(5-ethoxypyridin-3-yl)-3-methylphenyl]methyl]piperazin-1-yl]benzamide]
ASMS ratio (%) n = 1 (AS-MS, mixture library, Bcl-2): 18.2%
ASMS ratio (%) n = 2 (AS-MS, mixture library, Bcl-2): 2.1%

Compound: 6-[4-[[4-(5-Ethoxypyridin-3-yl)-2,6-dimethoxyphenyl]methyl]piperazin-1-yl]-N-propylpyridazine-3-carboxamide [B1M023-01]
ASMS ratio (%) n = 1 [2]: 1.4%
ASMS ratio (%) n = 2 [2]: −3.0%

Compound: CCOc1cncc(C#Cc2cncc(C(=O)N3CCN(c4ccc(C(=O)NS(=O)(=O)CC56CC7CC(CC(C7)C5)C6)nn4)CC3)c2)c1 [B2A010-01, N-(1-Adamantylmethylsulfonyl)-6-[4-[5-[2-(5-ethoxypyridin-3-yl)ethynyl]pyridine-3-carbonyl]piperazin-1-yl]pyridazine-3-carboxamide]
ASMS ratio (%) n = 1 (AS-MS, mixture library, Bcl-2): 0.0%
ASMS ratio (%) n = 2 (AS-MS, mixture library, Bcl-2): 0.0%

Compound: CCOc1cncc(C#Cc2cc(C(=O)N3CCN(c4ccc(C(=O)NS(=O)(=O)CCC(F)(F)F)nn4)CC3)cc(C(F)(F)F)c2)c1 [B2N020-01, 6-[4-[3-[2-(5-Ethoxypyridin-3-yl)ethynyl]-5-(trifluoromethyl)benzoyl]piperazin-1-yl]-N-(3,3,3-trifluoropropylsulfonyl)pyridazine-3-carboxamide]
ASMS ratio (%) (n = 1): 0.0%
ASMS ratio (%) (n = 2): 0.0%

The remaining lines, values ahead:

ASMS ratio (%) (n = 1): 1.2%
ASMS ratio (%) (n = 2): 0.0%
Compound: CCOc1cccc(-c2ccccc2CN2CCN(c3ccc(C(=O)NS(=O)(=O)C(C)(C)C)nn3)CC2)c1 [B2L071-01, N-tert-Butylsulfonyl-6-[4-[[2-(3-ethoxyphenyl)phenyl]methyl]piperazin-1-yl]pyridazine-3-carboxamide]

ASMS ratio (%) n = 1 [1]: 1.0%
ASMS ratio (%) n = 2 [1]: 3.2%
Compound: CCOc1cncc(-c2cc(C(=O)N3CCN(c4ccc(C(=O)Nc5ccc(OC)cc5)nn4)CC3)cc(C(F)(F)F)c2)c1 [B1O018-01, 6-[4-[3-(5-Ethoxypyridin-3-yl)-5-(trifluoromethyl)benzoyl]piperazin-1-yl]-N-(4-methoxyphenyl)pyridazine-3-carboxamide]

ASMS ratio (%) n = 1 (AS-MS, mixture library, Bcl-2): 0.0%
ASMS ratio (%) n = 2 (AS-MS, mixture library, Bcl-2): 0.0%
Compound: CCOc1cncc(-c2cc(CN3CCN(c4ccc(C(=O)N(CC)CC)nn4)CC3)cc(C(F)(F)F)c2)c1 [B4J088-01]

ASMS ratio (%) (n = 1): 9.2%
ASMS ratio (%) (n = 2): 7.5%
Compound: CCOc1cncc(-c2ccc(C(C)N3CCN(c4ccc(C(=O)NS(=O)(=O)c5ccc(NCCSc6ccccc6)c(C(F)(F)F)c5)cc4)CC3)cc2)c1 (stereo not shown) [B2R098-01, 4-[4-[1-[4-(5-Ethoxypyridin-3-yl)phenyl]ethyl]piperazin-1-yl]-N-[4-(2-phenylsulfanylethylamino)-3-(trifluoromethyl)phenyl]sulfonylbenzamide]

ASMS ratio (%) n = 1 [2]: 0.0%
ASMS ratio (%) n = 2 [2]: 0.0%
Compound: CCOc1cncc(-c2cc(CN3CCN(c4ccc(C(=O)NCC(F)(F)F)nn4)CC3)cc(OC(C)C)c2)c1 [B1K084-01, 6-[4-[[3-(5-Ethoxypyridin-3-yl)-5-propan-2-yloxyphenyl]methyl]piperazin-1-yl]-N-(2,2,2-trifluoroethyl)pyridazine-3-carboxamide]

ASMS ratio (%) (n = 1): 0.0%
ASMS ratio (%) (n = 2): 0.0%
Compound: CCOc1cncc(-c2ccc(CN3CCN(c4ccc(C(=O)NS(=O)(=O)CCC(F)(F)F)nn4)CC3)c(CC)c2)c1 [B2N076-01, 6-[4-[[4-(5-Ethoxypyridin-3-yl)-2-ethylphenyl]methyl]piperazin-1-yl]-N-(3,3,3-trifluoropropylsulfonyl)pyridazine-3-carboxamide]

ASMS ratio (%) (n = 1): 3.4%
ASMS ratio (%) (n = 2): −9.2%
Compound: CCOc1cccc(-c2cc(CN3CCN(c4ccc(C(=O)NS(=O)(=O)c5ccc(NCCSc6ccccc6)c(C(F)(F)F)c5)nn4)CC3)cc(OC(F)(F)F)c2)c1 [B2R089-01]

ASMS ratio (%) n = 1 (AS-MS, mixture library, Bcl-2): 4.4%
ASMS ratio (%) n = 2 (AS-MS, mixture library, Bcl-2): 0.4%
Compound: CCOc1cncc(-c2ccc(C(=O)N3CCN(c4ccc(C(=O)NS(=O)(=O)c5ccc(NCCSc6ccccc6)c([N+](=O)[O-])c5)cc4)CC3)cc2C)c1 [B2Q026-01, 4-[4-[4-(5-Ethoxypyridin-3-yl)-3-methylbenzoyl]piperazin-1-yl]-N-[3-nitro-4-(2-phenylsulfanylethylamino)phenyl]sulfonylbenzamide]

ASMS ratio (%) n = 1 [2]: 0.0%
ASMS ratio (%) n = 2 [2]: 0.0%
Compound: CCOc1cncc(-c2cc(CN3CCN(c4ccc(C(=O)NCC(F)(F)F)nn4)CC3)cc(OCC)c2)c1 [B1K082-01, 6-[4-[[3-Ethoxy-5-(5-ethoxypyridin-3-yl)phenyl]methyl]piperazin-1-yl]-N-(2,2,2-trifluoroethyl)pyridazine-3-carboxamide]

ASMS ratio (%) (n = 1): 0.0%
ASMS ratio (%) (n = 2): 0.0%
Compound: CCOc1cncc(-c2csc(CN3CCN(c4ccc(C(=O)NS(=O)(=O)c5ccc(NCCSc6ccccc6)c(C(F)(F)F)c5)cc4)CC3)c2)c1 [B2R068-01, 4-[4-[[4-(5-Ethoxypyridin-3-yl)thiophen-2-yl]methyl]piperazin-1-yl]-N-[4-(2-phenylsulfanylethylamino)-3-(trifluoromethyl)phenyl]sulfonylbenzamide]

ASMS ratio (%) n = 1 [1]: 6.0%
ASMS ratio (%) n = 2 [1]: −2.7%
Compound: CCOc1cccc(-c2cc(C(=O)N3CCN(c4ccc(C(=O)Nc5ccc(OC)cc5)nn4)CC3)cc(C(C)(C)C)c2)c1 [B1O015-01, 6-[4-[3-tert-Butyl-5-(3-ethoxyphenyl)benzoyl]piperazin-1-yl]-N-(4-methoxyphenyl)pyridazine-3-carboxamide]

ASMS ratio (%) (n = 1): 0.0%
ASMS ratio (%) (n = 2): −14.9%
Compound: CCOc1cccc(-c2cnn(-c3cc(C(=O)N4CCN(c5ccc(C(=O)NS(=O)(=O)C(C)(C)C)nn5)CC4)cc(C(F)(F)F)c3)c2)c1 [B2L021-01, N-tert-Butylsulfonyl-6-[4-[3-[4-(3-ethoxyphenyl)pyrazol-1-yl]-5-(trifluoromethyl)benzoyl]piperazin-1-yl]pyridazine-3-carboxamide]
